# Test results taken from patent publication US20230322761A1, “DEGRADATION OF BRUTON'S TYROSINE KINASE (BTK) BY CONJUGATION OF BTK INHIBITORS WITH E3 LIGASE LIGAND AND METHODS OF USE” (BEIGENE, LTD., priority 2020, published 2023).
# Molecular target: T1, BTK (Homo sapiens, UniProt Q06187)
# T1 construct: endogenous in cells; host or cells: TMD-8 cells
# Assay: BTK degradation in TMD-8 cells, HTRF assay after 6 h treatment
# Type: cell-based
# Details: IC50 (DC50) of BTK degradation
# In short: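 Remaining BTK was quantified by HTRF in lysates of TMD-8 cells after 6 h exposure to an 8-point, 6-fold compound series (500× stocks in DMSO starting at 1 mM; 0.2% DMSO). Lysis 30 min, antibodies overnight at room temperature, ratio read at 665/620 nm; DC50 fitted with a four-parameter logistic equation.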
# T1 sequence (Q06187 whole entry): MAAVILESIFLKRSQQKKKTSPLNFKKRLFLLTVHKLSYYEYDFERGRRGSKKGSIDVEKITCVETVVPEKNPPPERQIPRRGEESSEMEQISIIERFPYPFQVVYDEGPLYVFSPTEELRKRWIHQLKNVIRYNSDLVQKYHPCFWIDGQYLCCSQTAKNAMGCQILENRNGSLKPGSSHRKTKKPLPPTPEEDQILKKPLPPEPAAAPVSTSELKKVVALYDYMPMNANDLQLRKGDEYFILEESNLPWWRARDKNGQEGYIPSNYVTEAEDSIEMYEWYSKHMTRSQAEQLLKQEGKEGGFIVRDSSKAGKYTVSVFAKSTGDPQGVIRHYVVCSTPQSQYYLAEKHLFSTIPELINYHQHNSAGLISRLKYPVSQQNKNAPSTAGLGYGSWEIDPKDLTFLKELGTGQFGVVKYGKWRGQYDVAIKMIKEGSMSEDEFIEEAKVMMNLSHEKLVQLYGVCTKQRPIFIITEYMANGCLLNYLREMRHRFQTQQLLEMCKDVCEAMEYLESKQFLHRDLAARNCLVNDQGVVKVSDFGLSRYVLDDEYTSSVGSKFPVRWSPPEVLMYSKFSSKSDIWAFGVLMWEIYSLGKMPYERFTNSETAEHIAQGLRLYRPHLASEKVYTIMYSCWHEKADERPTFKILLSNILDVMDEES
row,Compound,DC50 [nM]
1,"Cc1cc(CCN2CCN(c3ccc(-c4cnc5[nH]nc(-c6ccc([C@@H](C)NC(=O)c7noc(C(C)(C)C)n7)c(C)c6)c5c4)nc3)CC2)ncc1C1CCC(=O)NC1=O (stereo partly drawn) [Example 147, 5-(tert-butyl)-N-((1R)-1-(4-(5-(5-(4-(2-(5-(2,6-dioxopiperidin-3-yl)-4-methylpyridin-2-yl)ethyl)piperazin-1-yl)pyridin-2-yl)-1H-pyrazolo[3,4-b]pyridin-3-yl)-2-methylphenyl)ethyl)-1,2,4-oxadiazole-3-carboxamide]",2.11
2,"Cc1cc(-c2n[nH]c3ncc(-c4ccc(N5CCN(CC6CCN(c7cc(F)ccc7N7CCC(=O)NC7=O)CC6)CC5)cc4)cc23)ccc1[C@@H](C)NC(=O)c1noc(C(C)(C)C)n1 [Example 90, (R)-5-(tert-butyl)-N-(1-(4-(5-(4-(4-((1-(2-(2,4-dioxotetrahydropyrimidin-1(2H)-yl)-5-fluorophenyl)piperidin-4-yl)methyl)piperazin-1-yl)phenyl)-1H-pyrazolo[3,4-b]pyridin-3-yl)-2-methylphenyl)ethyl)-1,2,4-oxadiazole-3-carboxamide]",> 2000
3,"Cc1cc(-c2n[nH]c3ncc(-c4ccc(N5CCN(CCc6ccc([C@H]7CCC(=O)NC7=O)c(F)c6)CC5)cc4)cc23)ccc1[C@@H](C)NC(=O)c1noc(C(C)(C)C)n1 [Example 113, 5-(tert-butyl)-N—((R)-1-(4-(5-(4-(4-(4-((R)-2,6-dioxopiperidin-3-yl)-3-fluorophenethyl)piperazin-1-yl)phenyl)-1H-pyrazolo[3,4-b]pyridin-3-yl)-2-methylphenyl)ethyl)-1,2,4-oxadiazole-3-carboxamide]",17
4,"Cc1cc(-c2n[nH]c3ncc(-c4ccc(C5(C)CCN(C6CC(c7ccc(C8CCC(=O)NC8=O)cc7)C6)CC5)cc4)cc23)ccc1[C@@H](C)NC(=O)c1noc(C(C)(C)C)n1 (stereo partly drawn) [Example 211, 5-(tert-butyl)-N-((1R)-1-(4-(5-(4-(1-(3-(4-(2,6-dioxopiperidin-3-yl)phenyl)cyclobutyl)-4-methylpiperidin-4-yl)phenyl)-1H-pyrazolo[3,4-b]pyridin-3-yl)-2-methylphenyl)ethyl)-1,2,4-oxadiazole-3-carboxamide]",13.5
5,"Cc1cc(-c2n[nH]c3ncc(-c4ccc(N5CCN(CCc6ccc(NC7CCC(=O)NC7=O)cc6)CC5)cc4)cc23)ccc1[C@@H](C)NC(=O)c1noc(C(C)(C)C)n1 (stereo partly drawn) [Example 131, 5-(tert-butyl)-N-((1R)-1-(4-(5-(4-(4-(4-((2,6-dioxopiperidin-3-yl)amino)phenethyl)piperazin-1-yl)phenyl)-1H-pyrazolo[3,4-b]pyridin-3-yl)-2-methylphenyl)ethyl)-1,2,4-oxadiazole-3-carboxamide]",5.9
6,"Cc1cc(-c2n[nH]c3ncc(-c4ccc(N5CCN(C6CC(c7ccc([C@@H]8CCC(=O)NC8=O)cc7)C6)CC5)cc4)cc23)ccc1[C@@H](C)NC(=O)c1noc(C(C)(C)C)n1 (stereo partly drawn) [Example 208, 5-(tert-butyl)-N—((R)-1-(4-(5-(4-(4-((1S,3s)-3-(4-((R)-2,6-dioxopiperidin-3-yl)phenyl)cyclobutyl)piperazin-1-yl)phenyl)-1H-pyrazolo[3,4-b]pyridin-3-yl)-2-methylphenyl)ethyl)-1,2,4-oxadiazole-3-carboxamide]",2.08
7,"Cc1cc(-c2n[nH]c3ncc(-c4ccc(N5CCN(CCc6ccc(C7CCC(=O)NC7=O)cn6)CC5)cc4)cc23)ccc1[C@@H](C)NC(=O)c1noc(C(C)(C)C)n1 (stereo partly drawn) [Example 101, 5-(tert-butyl)-N-((1R)-1-(4-(5-(4-(4-(2-(5-(2,6-dioxopiperidin-3-yl)pyridin-2-yl)ethyl)piperazin-1-yl)phenyl)-1H-pyrazolo[3,4-b]pyridin-3-yl)-2-methylphenyl)ethyl)-1,2,4-oxadiazole-3-carboxamide]",0.959
8,"COc1cc(OCCCN2CCN(c3ccc(-c4cnc5[nH]nc(-c6ccc([C@@H](C)NC(=O)c7nc(C(C)(C)C)no7)c(C)c6)c5c4)cc3)CC2)ccc1N1CCC(=O)NC1=O [Example 118, (R)-3-(tert-butyl)-N-(1-(4-(5-(4-(4-(3-(4-(2,4-dioxotetrahydropyrimidin-1(2H)-yl)-3-methoxyphenoxy)propyl)piperazin-1-yl)phenyl)-1H-pyrazolo[3,4-b]pyridin-3-yl)-2-methylphenyl)ethyl)-1,2,4-oxadiazole-5-carboxamide]",8.07
9,"COc1cc(N2CCC(CCN3CCN(c4ccc(-c5cnc6[nH]nc(-c7ccc([C@@H](C)NC(=O)c8noc(C(C)(C)C)n8)c(C)c7)c6c5)cc4)CC3)CC2)ccc1C1CCC(=O)NC1=O (stereo partly drawn) [Example 169, 5-(tert-butyl)-N-((1R)-1-(4-(5-(4-(4-(2-(1-(4-(2,6-dioxopiperidin-3-yl)-3-methoxyphenyl)piperidin-4-yl)ethyl)piperazin-1-yl)phenyl)-1H-pyrazolo[3,4-b]pyridin-3-yl)-2-methylphenyl)ethyl)-1,2,4-oxadiazole-3-carboxamide]",15.1
10,"COc1cc(OCCCN2CCC(c3ccc(-c4cnc5[nH]nc(-c6ccc(CNC(=O)c7nc(C(C)(C)C)no7)c(C)c6)c5c4)cc3)CC2)ccc1C1CCC(=O)NC1=O (stereo not drawn) [Example 30, 3-(tert-butyl)-N-(4-(5-(4-(1-(3-(4-(2,6-dioxopiperidin-3-yl)-3-methoxyphenoxy)propyl)piperidin-4-yl)phenyl)-1H-pyrazolo[3,4-b]pyridin-3-yl)-2-methylbenzyl)-1,2,4-oxadiazole-5-carboxamide]",8.19
11,"Cc1cc(-c2n[nH]c3ncc(-c4ccc(N5CCN(CCc6ccc(OC7CCC(=O)NC7=O)cc6)CC5)cc4)cc23)ccc1[C@@H](C)NC(=O)c1noc(C(C)(C)C)n1 (stereo partly drawn) [Example 123, 5-(tert-butyl)-N-((1R)-1-(4-(5-(4-(4-(4-((2,6-dioxopiperidin-3-yl)oxy)phenethyl)piperazin-1-yl)phenyl)-1H-pyrazolo[3,4-b]pyridin-3-yl)-2-methylphenyl)ethyl)-1,2,4-oxadiazole-3-carboxamide]",14.2
12,"Cc1cc(-c2n[nH]c3ncc(-c4ccc(N5CCN(CC6CCN(c7ccc(N8CCC(=O)NC8=O)c(C)c7)CC6)CC5)cc4)cc23)ccc1[C@@H](C)NC(=O)c1cc(C(C)(C)C)on1 [Example 172, (R)-5-(tert-butyl)-N-(1-(4-(5-(4-(4-((1-(4-(2,4-dioxotetrahydropyrimidin-1(2H)-yl)-3-methylphenyl)piperidin-4-yl)methyl)piperazin-1-yl)phenyl)-1H-pyrazolo[3,4-b]pyridin-3-yl)-2-methylphenyl)ethyl)isoxazole-3-carboxamide]",20.8
13,"Cc1cc(CCN2CCN(c3ccc(-c4cnc5[nH]nc(-c6ccc([C@@H](C)NC(=O)c7noc(C(C)(C)C)n7)c(C)c6)c5c4)cc3)CC2)ncc1C1CCC(=O)NC1=O (stereo partly drawn) [Example 141, 5-(tert-butyl)-N-((1R)-1-(4-(5-(4-(4-(2-(5-(2,6-dioxopiperidin-3-yl)-4-methylpyridin-2-yl)ethyl)piperazin-1-yl)phenyl)-1H-pyrazolo[3,4-b]pyridin-3-yl)-2-methylphenyl)ethyl)-1,2,4-oxadiazole-3-carboxamide]",3.27
14,"Cc1cc(-c2n[nH]c3ncc(-c4ccc(C5CCN(CCc6ccc(C7CCC(=O)NC7=O)cc6)CC5)cc4)cc23)ccc1CNC(=O)c1noc(C(C)(C)C)n1 (stereo not drawn) [Example 3, 5-(tert-butyl)-N-(4-(5-(4-(1-(4-(2,6-dioxopiperidin-3-yl)phenethyl)piperidin-4-yl)phenyl)-1H-pyrazolo[3,4-b]pyridin-3-yl)-2-methylbenzyl)-1,2,4-oxadiazole-3-carboxamide]",0.714
15,"Cc1cc(-c2n[nH]c3ncc(-c4ccc(N5CCN(CC6CCN(c7cccc(N8CCC(=O)NC8=O)c7)CC6)CC5)cc4)cc23)ccc1[C@@H](C)NC(=O)c1noc(C(C)(C)C)n1 [Example 138, (R)-5-(tert-butyl)-N-(1-(4-(5-(4-(4-((1-(3-(2,4-dioxotetrahydropyrimidin-1(2H)-yl)phenyl)piperidin-4-yl)methyl)piperazin-1-yl)phenyl)-1H-pyrazolo[3,4-b]pyridin-3-yl)-2-methylphenyl)ethyl)-1,2,4-oxadiazole-3-carboxamide]",8.6
16,"Cc1cc(-c2n[nH]c3ncc(-c4ccc(N5CCN(CCC6CCN(c7ccc([C@H]8CCC(=O)NC8=O)cc7)CC6)CC5)cc4)cc23)ccc1CNC(=O)c1noc(C(C)(C)C)n1 [Example 91, (R)-5-(tert-butyl)-N-(4-(5-(4-(4-(2-(1-(4-(2,6-dioxopiperidin-3-yl)phenyl)piperidin-4-yl)ethyl)piperazin-1-yl)phenyl)-1H-pyrazolo[3,4-b]pyridin-3-yl)-2-methylbenzyl)-1,2,4-oxadiazole-3-carboxamide]",1.97
17,"Cc1cc(-c2n[nH]c3ncc(-c4ccc(N5CCN(CCn6cc(C7CCC(=O)NC7=O)cn6)CC5)cc4)cc23)ccc1[C@@H](C)NC(=O)c1noc(C(C)(C)C)n1 (stereo partly drawn) [Example 186, 5-(tert-butyl)-N-((1R)-1-(4-(5-(4-(4-(2-(4-(2,6-dioxopiperidin-3-yl)-1H-pyrazol-1-yl)ethyl)piperazin-1-yl)phenyl)-1H-pyrazolo[3,4-b]pyridin-3-yl)-2-methylphenyl)ethyl)-1,2,4-oxadiazole-3-carboxamide]",1.61
18,"Cc1cc(-c2n[nH]c3ncc(-c4ccc(N5CCN(CC6CCN(c7ccc(N8CCC(=O)NC8=O)cc7)CC6)CC5)cc4)cc23)ccc1CNC(=O)c1csc(C(C)(C)C)n1 [Example 93, 2-(tert-butyl)-N-(4-(5-(4-(4-((1-(4-(2,4-dioxotetrahydropyrimidin-1(2H)-yl)phenyl)piperidin-4-yl)methyl)piperazin-1-yl)phenyl)-1H-pyrazolo[3,4-b]pyridin-3-yl)-2-methylbenzyl)thiazole-4-carboxamide]",28.8
19,"Cc1cc(-c2n[nH]c3ncc(-c4ccc(N5CCN(CCc6ccc([C@@H]7CCC(=O)NC7=O)c(F)c6)CC5)cc4)cc23)ccc1[C@@H](C)NC(=O)c1noc(C(C)(C)C)n1 [Example 114, 5-(tert-butyl)-N—((R)-1-(4-(5-(4-(4-(4-((S)-2,6-dioxopiperidin-3-yl)-3-fluorophenethyl)piperazin-1-yl)phenyl)-1H-pyrazolo[3,4-b]pyridin-3-yl)-2-methylphenyl)ethyl)-1,2,4-oxadiazole-3-carboxamide]",1.56

# Same assay, conditions: TMD8, maximum percentage of inhibition (degradation)
row,Compound,Dmax [%]
1,"COc1cc(OCCCN2CCC(c3ccc(-c4cnc5[nH]nc(-c6ccc(CNC(=O)c7nc(C(C)(C)C)no7)c(C)c6)c5c4)cc3)CC2)ccc1C1CCC(=O)NC1=O (stereo not drawn) [Example 30, 3-(tert-butyl)-N-(4-(5-(4-(1-(3-(4-(2,6-dioxopiperidin-3-yl)-3-methoxyphenoxy)propyl)piperidin-4-yl)phenyl)-1H-pyrazolo[3,4-b]pyridin-3-yl)-2-methylbenzyl)-1,2,4-oxadiazole-5-carboxamide]",97.5
2,"Cc1cc(-c2n[nH]c3ncc(-c4ccc(C5CCN(CCc6ccc(C7CCC(=O)NC7=O)cc6)CC5)cc4)cc23)ccc1CNC(=O)c1noc(C(C)(C)C)n1 (stereo not drawn) [Example 3, 5-(tert-butyl)-N-(4-(5-(4-(1-(4-(2,6-dioxopiperidin-3-yl)phenethyl)piperidin-4-yl)phenyl)-1H-pyrazolo[3,4-b]pyridin-3-yl)-2-methylbenzyl)-1,2,4-oxadiazole-3-carboxamide]",97.1
